# Measurements as given in patent US6737383B1, “Herbicidal oxadiazolidines” (priority 1999, dated 2004).
# Legend:
# blackgrass = assay: Test E blackgrass; format: in vivo, Alopecurus myosuroides; details: Preemergence
# winter barley = assay: Test E winter barley; format: in vivo, Hordeum vulgare; details: Preemergence
# green foxtail = assay: Test E green foxtail; format: in vivo, Setaria viridis; details: Preemergence
# crabgrass = assay: Test B pre/postemergence crabgrass; format: in vivo, Digitaria sanguinalis
# Method in brief: (§1)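 Test chemicals in a non-phytotoxic solvent mixture with surfactant were sprayed preemergence onto planted seeds and postemergence onto plants 2 to 18 cm tall (1- to 4-leaf stage). After twelve to sixteen days in a greenhouse, injury was visually rated against untreated controls from 0 (no effect) to 10 (complete control).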
# winter wheat [1] = assay: Test E winter wheat; format: in vivo, Triticum aestivum; details: Preemergence
# wild oat [2] = assay: Test B pre/postemergence wild oat; format: in vivo, Avena fatua
# Method in brief: as §1
# cocklebur = assay: Test B pre/postemergence cocklebur; format: in vivo, Xanthium strumarium
# Method in brief: as §1
# winter wheat [3] = assay: Test E winter wheat; format: in vivo, Triticum aestivum; details: Postemergence
# Method in brief: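 For postemergence, application to 1- to 4-leaf plants growing in a 60:40 sandy loam–potting mix substrate. Formulation: non-phytotoxic solvent mixture plus surfactant. Untreated controls served as the reference for the visual rating after ~21–28 days.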
# wheat = assay: Test B pre/postemergence wheat; format: in vivo, Triticum aestivum
# Method in brief: as §1
# Italian ryegrass = assay: Test E Italian ryegrass; format: in vivo, Lolium multiflorum; details: Preemergence
# wild oat [4] = assay: Test E wild oat; format: in vivo, Avena fatua; details: Preemergence
# [5] = Rate 31 g/ha, 0 to 100 scale, 0 no effect, 100 complete control
# [6] = Rate 62 g/ha, 0 to 100 scale, 0 no effect, 100 complete control
# [7] = Rate 125 g/ha, 0 to 100 scale (0 no effect, 100 complete control)
# [8] = Preemergence, Rate 31 g/ha, visual rating, scale 0 to 10 (0 no effect, 10 complete control)
# [9] = Preemergence, Rate 62 g/ha, scale of 0 to 10 where 0 is no effect and 10 is complete control
# [10] = Rate 16 g/ha, Postemergence, scale 0 to 10, 0 no effect, 10 complete control
# [11] = Rate 16 g/ha, Preemergence, scale 0 to 10, 0 no effect, 10 complete control
# [12] = Rate 31 g/ha, Postemergence, scale 0 to 10
# [13] = Rate 62 g/ha, Postemergence, scale 0 to 10 (0 no effect, 10 complete control)
# [14] = Rate 125 g/ha, Postemergence, scale of 0 to 10 where 0 is no effect and 10 is complete control
# [15] = Rate 125 g/ha, Preemergence, scale of 0 to 10 where 0 is no effect and 10 is complete control
# [16] = Rate 250 g/ha, 0 to 100 scale where 0 is no effect and 100 is complete control
# [17] = Rate 500 g/ha, 0 to 100 scale (0 no effect, 100 complete control)
# [18] = Rate 1000 g/ha, 0 to 100 scale, 0 no effect, 100 complete control
# [19] = Preemergence, Rate 250 g/ha, scale of 0 to 10 where 0 is no effect and 10 is complete control
# [20] = Rate 250 g/ha, Postemergence, scale of 0 to 10 where 0 is no effect and 10 is complete control
# [21] = Rate 1000 g/ha, 0 to 100 scale where 0 is no effect and 100 is complete control
# [22] = Rate 500 g/ha, 0 to 100 scale, 0 is no effect, 100 is complete control
# [23] = Preemergence, Rate 500 g/ha, scale of 0 to 10 where 0 is no effect and 10 is complete control
compound,measurement,setting,value
CC(C)N(C(=O)n1oc(=O)n(CCCF)c1=O)c1ccc(F)cc1 [Compound 287],"Plant response rating, Blackgrass",blackgrass; [5],30
same,"Plant response rating, Blackgrass",blackgrass; [6],30
same,"Plant response rating, Blackgrass",blackgrass; [7],50
same,Blackgrass plant response rating (0 to 100 scale),blackgrass; Rate 250 g/ha,60
same,"Plant response rating, Barley (winter)",winter barley; [5],30
same,"Plant response rating, Barley (winter)",winter barley; [6],20
same,"Plant response rating, Barley (winter)",winter barley; [7],30
same,Barley (winter) plant response rating (0 to 100 scale),winter barley; Rate 250 g/ha,35
same,"Plant response rating, Green foxtail",green foxtail; [5],30
same,"Plant response rating, Green foxtail",green foxtail; [6],60
same,"Plant response rating, Green foxtail",green foxtail; [7],60
same,Green foxtail plant response rating (0 to 100 scale),green foxtail; Rate 250 g/ha,90
same,Crabgrass plant response rating,crabgrass; [8],2
same,Crabgrass plant response rating,crabgrass; [9],8
same,Crabgrass plant response rating,crabgrass; [10],0
same,Crabgrass plant response rating,crabgrass; [11],0
same,Crabgrass plant response rating,crabgrass; [12],2
same,Crabgrass plant response rating,crabgrass; [13],2
same,Crabgrass plant response rating,crabgrass; [14],5
same,Crabgrass plant response rating,crabgrass; [15],9
same,"Plant response rating, Wheat (winter)",winter wheat [1]; [5],40
same,"Plant response rating, Wheat (winter)",winter wheat [1]; [6],30
same,"Plant response rating, Wheat (winter)",winter wheat [1]; [7],45
same,Wheat (winter) plant response rating (0 to 100 scale),winter wheat [1]; Rate 250 g/ha,50
same,Wild oats plant response rating,wild oat [2]; [8],1
same,Wild oats plant response rating,wild oat [2]; [9],8
same,Wild oats plant response rating,wild oat [2]; [10],0
same,Wild oats plant response rating,wild oat [2]; [11],0
same,Wild oats plant response rating,wild oat [2]; [13],2
same,Wild oats plant response rating,wild oat [2]; [14],3
same,Cocklebur plant response rating,cocklebur; [8],0
same,Cocklebur plant response rating,cocklebur; [9],0
same,Cocklebur plant response rating,cocklebur; [10],0
same,Cocklebur plant response rating,cocklebur; [11],0
same,Cocklebur plant response rating,cocklebur; [12],0
same,Cocklebur plant response rating,cocklebur; [13],0
same,Cocklebur plant response rating,cocklebur; [14],1
same,Cocklebur plant response rating,cocklebur; [15],0
same,"Plant response rating, Wheat (winter)",winter wheat [3]; [5],30
same,"Plant response rating, Wheat (winter)","winter wheat [3]; Rate 62 g/ha, 0 to 100 scale",30
same,"Plant response rating, Wheat (winter)","winter wheat [3]; Rate 125 g/ha, 0 to 100 scale, 0 is no effect, 100 is complete control",40
same,Wheat (winter) plant response rating,winter wheat [3]; [16],50
same,Wheat plant response rating,wheat; [8],0
same,Wheat plant response rating,wheat; [9],0
same,Wheat plant response rating,wheat; [10],0
same,Wheat plant response rating,wheat; [11],0
same,Wheat plant response rating,wheat; [13],5
same,Wheat plant response rating,wheat; [14],5
same,Wheat plant response rating,wheat; [15],7
same,"Plant response rating, I. Ryegrass",Italian ryegrass; [5],20
same,"Plant response rating, I. Ryegrass",Italian ryegrass; [6],50
same,"Plant response rating, I. Ryegrass",Italian ryegrass; [7],55
same,I. Ryegrass plant response rating (0 to 100 scale),Italian ryegrass; Rate 250 g/ha,60
same,"Plant response rating, Wild oat",wild oat [4]; [5],0
same,"Plant response rating, Wild oat",wild oat [4]; [6],30
same,"Plant response rating, Wild oat",wild oat [4]; [7],70
same,Wild oat plant response rating (0 to 100 scale),wild oat [4]; Rate 250 g/ha,60
CC(C)=CCn1c(=O)on(C(=O)N(c2ccc(F)cc2)C(C)C)c1=O [Compound 288],Blackgrass plant response rating (0 to 100 scale),blackgrass; Rate 250 g/ha,50
same,"Plant response rating, Blackgrass",blackgrass; [17],50
same,Barley (winter) plant response rating (0 to 100 scale),winter barley; Rate 250 g/ha,0
same,"Plant response rating, Barley (winter)",winter barley; [17],5
same,"Plant response rating, Barley (winter)",winter barley; [18],10
same,Green foxtail plant response rating (0 to 100 scale),green foxtail; Rate 250 g/ha,50
same,"Plant response rating, Green foxtail",green foxtail; [17],60
same,"Plant response rating, Green foxtail",green foxtail; [18],100
same,Crabgrass plant response rating,crabgrass; [8],0
same,Crabgrass plant response rating,crabgrass; [9],1
same,Crabgrass plant response rating,crabgrass; [19],10
same,Crabgrass plant response rating,crabgrass; [12],0
same,Crabgrass plant response rating,crabgrass; [13],0
same,Crabgrass plant response rating,crabgrass; [14],0
same,Crabgrass plant response rating,crabgrass; [15],2
same,"Plant response rating, Crabgrass",crabgrass; [20],3
same,Wheat (winter) plant response rating (0 to 100 scale),winter wheat [1]; Rate 250 g/ha,40
same,"Plant response rating, Wheat (winter)",winter wheat [1]; [17],30
same,"Plant response rating, Wheat (winter)",winter wheat [1]; [18],55
same,Wild oats plant response rating,wild oat [2]; [8],0
same,Wild oats plant response rating,wild oat [2]; [9],0
same,Wild oats plant response rating,wild oat [2]; [19],5
same,Wild oats plant response rating,wild oat [2]; [13],0
same,Wild oats plant response rating,wild oat [2]; [14],0
same,"Plant response rating, Wild oats",wild oat [2]; [20],0
same,Cocklebur plant response rating,cocklebur; [8],0
same,Cocklebur plant response rating,cocklebur; [9],0
same,Cocklebur plant response rating,cocklebur; [19],0
same,Cocklebur plant response rating,cocklebur; [12],0
same,Cocklebur plant response rating,cocklebur; [13],0
same,Cocklebur plant response rating,cocklebur; [14],0
same,Cocklebur plant response rating,cocklebur; [15],0
same,"Plant response rating, Cocklebur",cocklebur; [20],1
same,"Plant response rating, Wheat (winter)",winter wheat [3]; [21],40
same,Wheat (winter) plant response rating,winter wheat [3]; [16],35
same,"Plant response rating, Wheat (winter)",winter wheat [3]; [22],30
same,Wheat plant response rating,wheat; [8],0
same,Wheat plant response rating,wheat; [9],0
same,Wheat plant response rating,wheat; [19],2
same,Wheat plant response rating,wheat; [13],0
same,Wheat plant response rating,wheat; [14],0
same,Wheat plant response rating,wheat; [15],0
same,"Plant response rating, Wheat",wheat; [20],0
same,I. Ryegrass plant response rating (0 to 100 scale),Italian ryegrass; Rate 250 g/ha,30
same,"Plant response rating, I. Ryegrass",Italian ryegrass; [17],50
same,"Plant response rating, I. Ryegrass",Italian ryegrass; [18],60
same,Wild oat plant response rating (0 to 100 scale),wild oat [4]; Rate 250 g/ha,20
same,"Plant response rating, Wild oat",wild oat [4]; [17],30
same,"Plant response rating, Wild oat",wild oat [4]; [18],50
CCN(CC)C(=O)n1oc(=O)n(C2CC2)c1=O [Compound 297],"Plant response rating, Blackgrass","blackgrass; Rate 250 g/ha, 0 to 100 scale",40
same,"Plant response rating, Blackgrass",blackgrass; [17],20
same,"Plant response rating, Blackgrass",blackgrass; [18],50
same,"Plant response rating, Barley (winter)","winter barley; Rate 250 g/ha, 0 to 100 scale, 0 no effect, 100 complete control",50
same,"Plant response rating, Barley (winter)",winter barley; [17],55
same,"Plant response rating, Barley (winter)",winter barley; [18],60
same,"Plant response rating, Green foxtail","green foxtail; Rate 250 g/ha, 0 to 100 scale",60
same,"Plant response rating, Green foxtail",green foxtail; [17],60
same,"Plant response rating, Green foxtail",green foxtail; [18],60
same,Crabgrass plant response rating,crabgrass; [9],0
same,Crabgrass plant response rating,crabgrass; [19],7
same,"Plant response rating, Crabgrass",crabgrass; [23],7
same,Crabgrass plant response rating,crabgrass; [13],0
same,Crabgrass plant response rating,crabgrass; [14],0
same,Crabgrass plant response rating,crabgrass; [15],2
same,"Plant response rating, Crabgrass",crabgrass; [20],0
same,"Plant response rating, Wheat (winter)","winter wheat [1]; Rate 250 g/ha, 0 to 100 scale",30
same,"Plant response rating, Wheat (winter)",winter wheat [1]; [17],60
same,"Plant response rating, Wheat (winter)",winter wheat [1]; [18],70
same,Wild oats plant response rating,wild oat [2]; [9],0
same,Wild oats plant response rating,wild oat [2]; [19],0
same,"Plant response rating, Wild oats",wild oat [2]; [23],0
same,Wild oats plant response rating,wild oat [2]; [13],0
same,Wild oats plant response rating,wild oat [2]; [14],0
same,"Plant response rating, Wild oats",wild oat [2]; [20],0
same,Cocklebur plant response rating,cocklebur; [9],0
same,Cocklebur plant response rating,cocklebur; [19],0
same,"Plant response rating, Cocklebur",cocklebur; [23],0
same,Cocklebur plant response rating,cocklebur; [13],0
same,Cocklebur plant response rating,cocklebur; [14],0
same,Cocklebur plant response rating,cocklebur; [15],0
same,"Plant response rating, Cocklebur",cocklebur; [20],0
same,Cocklebur plant response rating,"cocklebur; Rate 500 g/ha, Postemergence, scale 0 to 10, 0 no effect, 10 complete control",0
same,"Plant response rating, Wheat (winter)","winter wheat [3]; Rate 250 g/ha, 0 to 100 scale, 0 is no effect, 100 is complete control",50
same,"Plant response rating, Wheat (winter)",winter wheat [3]; [21],70
same,"Plant response rating, Wheat (winter)",winter wheat [3]; [22],60
same,Wheat plant response rating,wheat; [9],0
same,Wheat plant response rating,wheat; [19],0
same,"Plant response rating, Wheat",wheat; [23],0
same,Wheat plant response rating,wheat; [13],0
same,Wheat plant response rating,wheat; [14],0
same,Wheat plant response rating,wheat; [15],0
same,"Plant response rating, Wheat",wheat; [20],0
same,"Plant response rating, I. Ryegrass","Italian ryegrass; Rate 250 g/ha, 0 to 100 scale",60
same,"Plant response rating, I. Ryegrass",Italian ryegrass; [17],50
same,"Plant response rating, I. Ryegrass",Italian ryegrass; [18],40
same,"Plant response rating, Wild oat","wild oat [4]; Rate 250 g/ha, 0 to 100 scale",70
same,"Plant response rating, Wild oat",wild oat [4]; [17],60
same,"Plant response rating, Wild oat",wild oat [4]; [18],70
